ChEMBL document CHEMBL4477173, “Additional Insights into the Obtusallene Family: Components of Laurencia marilzae” (2016)

Each compound was assayed on HepG2 (assay: Induction of apoptosis in human HepG2 cells assessed as apoptotic cells at 50 uM by Annexin V-FITC/propidium iodide staining based flow cytometry relative to control).
Format: functional

Row | SMILES | Activity [%]
1 | C[C@H]1/C=C/C[C@H](Br)[C@@H]2C[C@@H](Cl)[C@@H](C[C@H](C=C=CBr)O1)O2 | 47
2 | C[C@@H]1O[C@@H](C=C=CBr)C[C@H]2O[C@@H](C[C@H]2Cl)[C@@H](Br)C[C@H]2O[C@H]12 | >65
3 | C[C@@H]1O[C@@H](C=C=CBr)C[C@H]2O[C@@H](C[C@H]2Cl)[C@@H](Br)C[C@@H]2O[C@@H]12 | >70
